In patent publication US20020137929A1, “1 - (3-heterocyclylphenyl) isothiourea, -isourea, -guanidine and -amidine herbicidal agents” (Intellectual Property Department, BASF Aktiengesellschaft, priority 1998, published 2002):

What was measured:
[1] = system: TRZAWR (Wheat, Winter, cv Riband); experiment: Preemergence herbicidal evaluation; format: in vivo, Triticum aestivum; conditions: rated 4-5 weeks after treatment; for TRZAWR rating: preemergence, 0-9 scale
How it was run: (§1)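 In this greenhouse assay, monocot and dicot seeds are planted in soil and treated prior to emergence with an aqueous acetone spray (about 0.0156-0.500 kg/ha). Plants are assessed visually against control on a 0-9 scale after 4-5 weeks.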

CYPSE (Flatsedge) [2] = experiment: Preemergence weed control under flooded paddy conditions; format: in vivo, Cyperus serotinus; conditions: rated 3-4 weeks after treatment
How it was run: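 Herbicidal effect is scored visually on a 0-9 scale against an untreated control, three to four weeks after compounds are pipetted into the flood water (1.5 to 3 cm deep) over seeds planted in silt loam at 0.5 cm depth. Rates: about 0.0313 to 0.500 kg/ha.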

AMBEL (Ragweed, Common) = experiment: Preemergence herbicidal evaluation; format: in vivo, Ambrosia artemisifolia; conditions: rated 4-5 weeks after treatment; for AMBEL rating: preemergence, 0-9 scale
How it was run: as §1

CASOB (Sicklepod) = experiment: Postemergence herbicidal evaluation; format: in vivo, Cassia obtusifolia; conditions: postemergence
How it was run: (§2)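 ~2-wk seedlings; postemergence spray, 40 psi; vehicle 1:1 acetone:water + 0.5% Tween 20; rate ≈0.0156–0.500 kg/ha; greenhouse hold; scored 4–5 wk after treatment, 0–9 scale vs control; repeat tests averaged.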

GALAP (Galium) = experiment: Postemergence herbicidal evaluation; format: in vivo, Galium aparine; conditions: postemergence
How it was run: as §2

ORYSAT (Rice, Tebonnet) = experiment: Preemergence herbicidal evaluation; format: in vivo, Oryza sativa, (L.) Tebonnet; conditions: rated 4-5 weeks after treatment; for ORYSAT rating: preemergence, 0-9 scale
How it was run: as §1

[3] = system: ECHORC (Watergrass (Calif.)); experiment: Preemergence weed control under flooded paddy conditions; format: in vivo, Echinochloa oryzoides; conditions: rated 3-4 weeks after treatment
How it was run: (§3)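 Seeds or propagules sown in silt loam kept flooded 1.5-3 cm; compounds in 50/50 acetone/water pipetted into flood water at about 0.0313 to 0.500 kg/ha. Greenhouse; visual 0-9 rating versus untreated control 3-4 weeks after treatment.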

[4] = system: ECHORC (Watergrass (Calif.)); experiment: Postemergence weed control under flooded paddy conditions; format: in vivo, Echinochloa oryzoides; conditions: postemergence weeds
How it was run: (§4)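 Weeds 3 to 5 cm tall and rice seedlings at the 1.5 to 2.5 leaf stage were flooded, with water held 1.5 to 3 cm above the soil. Compounds in 50/50 v/v aqueous/acetone went into the flood water at about 0.0313 to 0.500 kg/ha. Visual 0-9 ratings versus control were made 3 to 4 weeks later.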

[5] = system: CHEAL (Lambsquarters, Common); experiment: Preemergence herbicidal evaluation; format: in vivo, Chenopodium album; conditions: rated 4-5 weeks after treatment; for CHEAL rating: preemergence, 0-9 scale
How it was run: as §1

ZEAMX (Corn, Field) [6] = experiment: Postemergence herbicidal evaluation; format: in vivo, Zea mays; conditions: postemergence
How it was run: as §2

ZEAMX (Corn, Field) [7] = experiment: Preemergence herbicidal evaluation; format: in vivo, Zea mays; conditions: rated 4-5 weeks after treatment; for ZEAMX rating: preemergence, 0-9 scale
How it was run: as §1

CYPIR (Rice Flatsedge) = experiment: Preemergence weed control under flooded paddy conditions; format: in vivo, Cyperus iria; conditions: rated 3-4 weeks after treatment
How it was run: as §3

[8] = system: IPOHE (Morningglory, Ivyleaf); experiment: Preemergence herbicidal evaluation; format: in vivo, Ipomoea hederacea; conditions: rated 4-5 weeks after treatment; for IPOHE rating: preemergence, 0-9 scale
How it was run: as §1

CYPSE (Flatsedge) [9] = experiment: Postemergence weed control under flooded paddy conditions; format: in vivo, Cyperus serotinus; conditions: postemergence weeds
How it was run: as §4

[10] = Rate 0.0313 kg/ha, rated 3 to 4 weeks after treatment
[11] = Rate 0.1250 kg/ha, rated 3 to 4 weeks after treatment
[12] = Rate 0.2500 kg/ha, rated 3 to 4 weeks after treatment
[13] = rate 0.1160 kg/ha, 3-4 weeks after treatment
[14] = rate 0.2310 kg/ha, 3-4 weeks after treatment
[15] = rate 0.4630 kg/ha, 3-4 weeks after treatment

C=CCN1C(=O)C(CC(=O)NS(=O)(=O)CC)SC1=Nc1cc(-n2c(=O)cc(C(F)(F)F)n(C)c2=O)c(F)cc1Cl (stereo not drawn) [Compound 104, 3-Allyl-2-{{2-chloro-5-[3,6-dihydro-3-methyl-2,6-dioxo-4-(trifluoromethyl)-1(2H)-pyrimidinyl]-4-fluorophenyl}imino}-N-(ethylsulfonyl)-4-oxo-5-thiazolidineacetamide]
TRZAWR rating ([1]; 0.0625 kg/ha): 0.0 | TRZAWR rating ([1]; 0.1250 kg/ha): 0.0 | TRZAWR rating ([1]; 0.2500 kg/ha): 0.0 | TRZAWR rating ([1]; 0.5000 kg/ha): 1.0 | CYPSE herbicidal effect rating (CYPSE (Flatsedge) [2]; 0.0313 kg/ha): 0.0 | CYPSE herbicidal effect rating (CYPSE (Flatsedge) [2]; 0.1250 kg/ha): 0.0 | CYPSE herbicidal effect rating (CYPSE (Flatsedge) [2]; 0.2500 kg/ha): 0.0 | AMBEL rating (AMBEL (Ragweed, Common); 0.0625 kg/ha): 0.0 | AMBEL rating (AMBEL (Ragweed, Common); 0.1250 kg/ha): 0.0 | AMBEL rating (AMBEL (Ragweed, Common); 0.2500 kg/ha): 3.0 | AMBEL rating (AMBEL (Ragweed, Common); 0.5000 kg/ha): 9.0 | Herbicidal rating CASOB (CASOB (Sicklepod); rate 0.0156 kg/ha): 0.0 | Herbicidal rating CASOB (CASOB (Sicklepod); rate 0.0313 kg/ha): 0.0 | Herbicidal rating CASOB (CASOB (Sicklepod); rate 0.0625 kg/ha): 0.0 | Herbicidal rating CASOB (CASOB (Sicklepod); rate 0.1250 kg/ha): 1.0 | Herbicidal rating GALAP (GALAP (Galium); rate 0.0156 kg/ha): 0.0 | Herbicidal rating GALAP (GALAP (Galium); rate 0.0313 kg/ha): 0.0 | Herbicidal rating GALAP (GALAP (Galium); rate 0.0625 kg/ha): 1.0 | Herbicidal rating GALAP (GALAP (Galium); rate 0.1250 kg/ha): 2.0 | ORYSAT rating (ORYSAT (Rice, Tebonnet); 0.0625 kg/ha): 0.0 | ORYSAT rating (ORYSAT (Rice, Tebonnet); 0.1250 kg/ha): 0.0 | ORYSAT rating (ORYSAT (Rice, Tebonnet); 0.2500 kg/ha): 0.0 | ORYSAT rating (ORYSAT (Rice, Tebonnet); 0.5000 kg/ha): 0.0 | ECHORC herbicidal effect rating ([3]; 0.0313 kg/ha): 4.0 | ECHORC herbicidal effect rating ([3]; 0.0625 kg/ha): 5.0 | ECHORC herbicidal effect rating ([3]; 0.1250 kg/ha): 6.0 | ECHORC herbicidal effect rating ([3]; 0.2500 kg/ha): 6.0 | Herbicidal rating ECHORC [4, 10]: 4.0 | Herbicidal rating ECHORC ([4]; Rate 0.0625 kg/ha, rated 3 to 4 weeks after treatment): 5.0 | Herbicidal rating ECHORC [4, 11]: 6.0 | Herbicidal rating ECHORC [4, 12]: 6.0 | CHEAL rating ([5]; 0.0625 kg/ha): 0.0 | CHEAL rating ([5]; 0.1250 kg/ha): 9.0 | CHEAL rating ([5]; 0.2500 kg/ha): 9.0 | CHEAL rating ([5]; 0.5000 kg/ha): 9.0 | Herbicidal rating ZEAMX (ZEAMX (Corn, Field) [6]; rate 0.0156 kg/ha): 4.5 | Herbicidal rating ZEAMX (ZEAMX (Corn, Field) [6]; rate 0.0313 kg/ha): 4.5 | Herbicidal rating ZEAMX (ZEAMX (Corn, Field) [6]; rate 0.0625 kg/ha): 6.0 | Herbicidal rating ZEAMX (ZEAMX (Corn, Field) [6]; rate 0.1250 kg/ha): 8.0 | ZEAMX rating (ZEAMX (Corn, Field) [7]; 0.0625 kg/ha): 0.0 | ZEAMX rating (ZEAMX (Corn, Field) [7]; 0.1250 kg/ha): 0.0 | ZEAMX rating (ZEAMX (Corn, Field) [7]; 0.2500 kg/ha): 0.0 | ZEAMX rating (ZEAMX (Corn, Field) [7]; 0.5000 kg/ha): 2.0 | CYPIR herbicidal effect rating (CYPIR (Rice Flatsedge); 0.0313 kg/ha): 5.0 | CYPIR herbicidal effect rating (CYPIR (Rice Flatsedge); 0.0625 kg/ha): 9.0 | CYPIR herbicidal effect rating (CYPIR (Rice Flatsedge); 0.1250 kg/ha): 9.0 | CYPIR herbicidal effect rating (CYPIR (Rice Flatsedge); 0.2500 kg/ha): 9.0 | IPOHE rating ([8]; 0.0625 kg/ha): 0.0 | IPOHE rating ([8]; 0.1250 kg/ha): 0.0 | IPOHE rating ([8]; 0.2500 kg/ha): 3.0 | IPOHE rating ([8]; 0.5000 kg/ha): 9.0 | Herbicidal rating CYPSE (CYPSE (Flatsedge) [9]; [10]): 0.0 | Herbicidal rating CYPSE (CYPSE (Flatsedge) [9]; [11]): 0.0 | Herbicidal rating CYPSE (CYPSE (Flatsedge) [9]; [12]): 0.0

CCOC(=O)CN1C(=O)CO/C1=N/c1cc(-n2c(=O)cc(C(F)(F)F)n(C)c2=O)c(F)cc1Cl [Compound 22, Ethyl 2-{{2-chloro-5-[3,6-dihydro-3-methyl-2,6-dioxo-4-(trifluoromethyl)-1(2H)-pyrimidinyl]-4-fluorophenyl}imino}-4-oxo-3-oxazolidineacetate]
TRZAWR preemergence herbicidal rating ([1]; rate 0.0156 kg/ha): 0.0 | TRZAWR preemergence herbicidal rating ([1]; rate 0.0313 kg/ha): 0.0 | TRZAWR preemergence herbicidal rating ([1]; rate 0.0625 kg/ha): 1.0 | TRZAWR preemergence herbicidal rating ([1]; rate 0.1250 kg/ha): 5.0 | TRZAWR preemergence herbicidal rating ([1]; rate 0.2500 kg/ha): 7.0 | Herbicidal rating CYPSE (CYPSE (Flatsedge) [2]; 0.1160 kg/ha): 4.0 | Herbicidal rating CYPSE (CYPSE (Flatsedge) [2]; 0.2310 kg/ha): 4.0 | Herbicidal rating CYPSE (CYPSE (Flatsedge) [2]; 0.4630 kg/ha): 4.0 | AMBEL preemergence herbicidal rating (AMBEL (Ragweed, Common); rate 0.0156 kg/ha): 0.0 | AMBEL preemergence herbicidal rating (AMBEL (Ragweed, Common); rate 0.0313 kg/ha): 5.0 | AMBEL preemergence herbicidal rating (AMBEL (Ragweed, Common); rate 0.0625 kg/ha): 7.0 | AMBEL preemergence herbicidal rating (AMBEL (Ragweed, Common); rate 0.1250 kg/ha): 9.0 | AMBEL preemergence herbicidal rating (AMBEL (Ragweed, Common); rate 0.2500 kg/ha): 9.0 | CASOB herbicidal rating (CASOB (Sicklepod); rate 0.0158 kg/ha): 1.0 | CASOB herbicidal rating (CASOB (Sicklepod); rate 0.0315 kg/ha): 2.0 | CASOB herbicidal rating (CASOB (Sicklepod); rate 0.0630 kg/ha): 1.0 | GALAP herbicidal rating (GALAP (Galium); rate 0.0158 kg/ha): 4.0 | GALAP herbicidal rating (GALAP (Galium); rate 0.0315 kg/ha): 4.0 | GALAP herbicidal rating (GALAP (Galium); rate 0.0630 kg/ha): 3.0 | ORYSAT preemergence herbicidal rating (ORYSAT (Rice, Tebonnet); rate 0.0156 kg/ha): 0.0 | ORYSAT preemergence herbicidal rating (ORYSAT (Rice, Tebonnet); rate 0.0313 kg/ha): 0.0 | ORYSAT preemergence herbicidal rating (ORYSAT (Rice, Tebonnet); rate 0.0625 kg/ha): 0.0 | ORYSAT preemergence herbicidal rating (ORYSAT (Rice, Tebonnet); rate 0.1250 kg/ha): 5.0 | ORYSAT preemergence herbicidal rating (ORYSAT (Rice, Tebonnet); rate 0.2500 kg/ha): 8.0 | Herbicidal rating ECHORC ([3]; 0.1160 kg/ha): 6.0 | Herbicidal rating ECHORC ([3]; 0.2310 kg/ha): 9.0 | Herbicidal rating ECHORC ([3]; 0.4630 kg/ha): 9.0 | Herbicidal rating ECHORC [4, 13]: 6.0 | Herbicidal rating ECHORC [4, 14]: 9.0 | Herbicidal rating ECHORC [4, 15]: 9.0 | CHEAL preemergence herbicidal rating ([5]; rate 0.0156 kg/ha): 9.0 | CHEAL preemergence herbicidal rating ([5]; rate 0.0313 kg/ha): 9.0 | CHEAL preemergence herbicidal rating ([5]; rate 0.0625 kg/ha): 9.0 | CHEAL preemergence herbicidal rating ([5]; rate 0.1250 kg/ha): 9.0 | CHEAL preemergence herbicidal rating ([5]; rate 0.2500 kg/ha): 9.0 | ZEAMX herbicidal rating (ZEAMX (Corn, Field) [6]; rate 0.0158 kg/ha): 7.0 | ZEAMX herbicidal rating (ZEAMX (Corn, Field) [6]; rate 0.0315 kg/ha): 7.5 | ZEAMX herbicidal rating (ZEAMX (Corn, Field) [6]; rate 0.0630 kg/ha): 7.5 | ZEAMX preemergence herbicidal rating (ZEAMX (Corn, Field) [7]; rate 0.0156 kg/ha): 2.0 | ZEAMX preemergence herbicidal rating (ZEAMX (Corn, Field) [7]; rate 0.0313 kg/ha): 5.0 | ZEAMX preemergence herbicidal rating (ZEAMX (Corn, Field) [7]; rate 0.0625 kg/ha): 7.0 | ZEAMX preemergence herbicidal rating (ZEAMX (Corn, Field) [7]; rate 0.1250 kg/ha): 8.0 | ZEAMX preemergence herbicidal rating (ZEAMX (Corn, Field) [7]; rate 0.2500 kg/ha): 9.0 | Herbicidal rating CYPIR (CYPIR (Rice Flatsedge); 0.1160 kg/ha): 0.0 | Herbicidal rating CYPIR (CYPIR (Rice Flatsedge); 0.2310 kg/ha): 0.0 | Herbicidal rating CYPIR (CYPIR (Rice Flatsedge); 0.4630 kg/ha): 5.0 | IPOHE preemergence herbicidal rating ([8]; rate 0.0156 kg/ha): 0.0 | IPOHE preemergence herbicidal rating ([8]; rate 0.0313 kg/ha): 2.0 | IPOHE preemergence herbicidal rating ([8]; rate 0.0625 kg/ha): 9.0 | IPOHE preemergence herbicidal rating ([8]; rate 0.1250 kg/ha): 9.0 | IPOHE preemergence herbicidal rating ([8]; rate 0.2500 kg/ha): 9.0 | Herbicidal rating CYPSE (CYPSE (Flatsedge) [9]; [13]): 4.0 | Herbicidal rating CYPSE (CYPSE (Flatsedge) [9]; [14]): 4.0 | Herbicidal rating CYPSE (CYPSE (Flatsedge) [9]; [15]): 4.0
